Experimental findings from patent US20100004159A1, “SUBSTITUTED IMIDAZOLONE DERIVATIVES, PREPARATIONS AND USES” (GENFIT, priority 2006, published 2010) are described below.

One assay has as its target T1, hPPARγ (Homo sapiens, UniProt P37231).
T1 construct: DNA fragments amplified by PCR and corresponding to the DEF domains of human PPARα, PPARγ, and PPARδ nuclear receptors; expressed in transfected cells; host or cells: COS-7
T1 sequence (P37231 238-503 limits assumed): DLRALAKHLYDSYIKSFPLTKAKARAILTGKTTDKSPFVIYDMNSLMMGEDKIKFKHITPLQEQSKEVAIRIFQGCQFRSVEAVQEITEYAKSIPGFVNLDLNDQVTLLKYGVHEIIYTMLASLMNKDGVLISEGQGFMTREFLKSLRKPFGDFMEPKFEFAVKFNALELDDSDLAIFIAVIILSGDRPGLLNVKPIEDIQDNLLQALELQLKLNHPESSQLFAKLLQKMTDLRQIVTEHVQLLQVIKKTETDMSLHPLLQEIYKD
Briefly: Gal4-hPPARγ transactivation in COS-7 cells (luciferase). Format: cell-based. The conditions noted are these: for EC50: Gal4-hPPARγ chimera, COS-7 cells, 24 hours. Here is the method:
The activation of PPARs was evaluated in vitro using a monkey kidney fibroblast line (COS-7) by measuring the transcriptional activity of chimeras made up of the DNA binding domain of the Gal4 transcription factor of yeast and of the binding domain to the ligand of the different PPARs. The compounds were tested at doses of between 0.01 and 100 μM on Gal4-PPARα, γ, and δ chimeras.
COS-7 cells came from ATCC (American type culture collection) and were cultivated in a DMEM medium supplemented with 10% (vol/vol) of fetal calf serum, 100 U/ml of penicillin (Gibco, Paisley, UK) and 2 mM of L-Glutamine (Gibco, Paisley, UK). The cells were incubated at 37° C. under humid atmosphere containing 5% CO2.
The plasmids Gal4(RE)_TkpGL3, pGal4-hPPARα, pGal4-hPPARγ, pGal4-hPPARδ and pGal4-φ have been described in the literature (Raspe E et al., 1999). The constructions pGal4-hPPARα, pGal4-hPPARγ, and pGal4-hPPARδ were obtained by cloning, in the pGal4-φ vector, DNA fragments amplified by PCR and corresponding to the DEF domains of human PPARα, PPARγ, and PPARδ nuclear receptors.
The COS-7 cells in suspension were transfected with 150 ng of DNA per well, with a pGal4-PPAR/Gal4(RE)_TkpGL3 ratio of 1/10, in presence of 10% fetal calf serum. The cells were then plated in 96-well plates (4×10^4 cells/well), then incubated for 24 hours at 37° C. Activation with the test compounds was performed for 24 hours at 37° C. in a medium without serum. At the end of the experiment, the cells were lysed and the luciferase activity was determined using the Steady-Lite™ HTS (Perkin Elmert) or the Steady Glow Luciferase kit (Promega), in accordance with the provider's recommendations.
The compounds according to the invention were tested at doses between 0,01 and 100 μM on the 3 PPAR isoforms. The results obtained are presented in detail under FIG. 1a.

Another assay has as its system db/db mouse. Briefly: Plasma lipids, glycemia and insulinemia in db/db mouse. Format: in vivo. The conditions noted are these: 28-day treatment per os. Here is the method:
The insulin-resistance and hypolipemic properties of the compounds according to the invention were evaluated in vivo by assaying the plasma lipid, by measuring the plasma glucose and insulin levels, and by an analysis of the gene expression of PPAR target genes, after a per os treatment with the compounds according to the invention. These tests were performed in the db/db mouse
Female db/db mice were kept on a 12 hour/12 hour light/dark cycle at a constant temperature of 20±3° C. After a one week acclimatization period, the mice were weighed and divided into groups of 8 animals selected so as to render uniform the distribution of their body weights and their plasma lipid rates, determined before the experiment. The tested compounds were suspended in carboxymethylcellulose (Sigma C4888) and administered by intra-gastric tube feeding once a day for 28 days at the chosen dose. The animals had free access to food and water (standard diet). Taking of food and weight gain are recorded throughout the experiment. At the end of the experiment, the animals were anesthetized after a 4 hour fast, a blood sample was taken using (EDTA) anticoagulant, then the mice were weighed and euthanized. The plasma was separated by centrifugation at 3000 rotations/minute for 20 minutes. The samples were kept at +4° C.
Plasma lipid concentrations (total cholesterol and triglycerides) were measured by enzymatic assays (bioMerieux-Lyon-France) according to the provider's recommendations.
Murine plasma glucose was measured according to an enzyme-colorimetric method using a Glucose RTU kit (Biomerieux). Glucose is transformed into gluconic acid under the action of glucose oxidase; the reaction releases hydrogen peroxide. Hydrogen peroxide was measured according to the Trinder reaction which, under the action of a peroxidase and in the presence of phenol and amino-4-antipyrine, produces water and a colored product, quinoneimine. The color intensity, due to the quinoneimine, is proportional to the amount of glucose present in the sample.
Murine insulin is measured using ELISA method (using the INSKR020 kit from provider Crystal chem.). A microplate is coated with a mouse anti-insulin antibody. Then, the serum to be assayed for insulin is placed onto the plate. A guinea pig anti-insulin antibody is used to recognize the complex formed by the mouse insulin and the anti-insulin monoclonal antibody. Finally an anti-guinea pig antibody labeled with peroxidase is added and bind to the guinea pig anti-insulin antibody. The colorimetric reaction is performed by adding an OPD (Ortho Phenyl Diamine) enzyme substrate. The intensity of the color is proportional to the amount of insulin present in the sample.

The test system of assay [1] is Wistar rats under perfusion of angiotensin II. Briefly: Arterial pressure of Wistar rats under angiotensin II perfusion. It counts as in vivo, rat. The conditions noted are these: angiotensin II perfusion 100 ng/kg/min; intravenous increasing doses 1, 3, 10 and 30 mpk. Here is the method: This experimental procedure is intended to show the anti-hypertensive effects of the compounds according to the invention in Wistar rats in which hypertension is induced either by continuous intravenous administration of angiotensin II (example 21.1) or by repeated intravenous administration of angiotensin II (example 21.2). The animals were treated with the compounds according to the invention intravenously at increasing doses. To validate the study, the control animals were administered, in the same conditions, either the vehicle itself or a reference.
Wistar rats (males—200-250 g—5-6 weeks old—CERJ) were anesthetized for surgery using pentobarbital (50 mg/kg). A catheter was placed in the right jugular vein for the angiotensin II perfusion. A catheter was placed in the left jugular vein for the administration of the compounds according to the invention. The angiotensin II perfusion at 100 ng/kg/min was performed using an auto-syringe set at 5 ml/hour (vehicle NaCl 0.15M). A solution of Na2CO3/NaHCO3 (50 mM pH 9.6) served as the vehicle for the compounds according to the invention. Arterial pressure was measured using a sensor set in the carotid artery via a catheter.
The arterial pressure of the animal was measured for few minutes in basal conditions, before the angiotensin II perfusion was put into place. […]

Usually EC50 stands for the concentration giving half of the maximal effect. Low values mean an effect from little substance, high ones a need for much substance. `CCCCC1=NC2(CCCCC2)C(=O)N1Cc1ccc(-c2cccc(OC(C)(C)C(=O)O)c2)cc1` [Compound 21, 2-butyl-1-[(3′-((1-carboxy-1,1-dimethylmethyl)oxy)biphenyl-4-yl)methyl]-4-spirocyclohexyl-1H-imidazol-5(4H)-one] gave an EC50 on hPPARγ of 1 µM. Also, in the assay with db/db mouse (100 mpk), the glycemia entry was “decreased significantly”, the insulinemia result was “decreased significantly”, the “plasma free lipids level” value is listed as “decreased significantly” and the plasma triglycerides level entry is given as “decreased significantly”. In addition, the “arterial pressure: antagonist effect on angiotensin II” value in assay [1] is “antagonist effect on angiotensin II in a significant and dose-dependent way”.

As to `CCCCC1=NC2(CCCC2)C(=O)N1Cc1ccc(-c2cccc(OC(C)(C)C(=O)O)c2)cc1` [Compound 1, 2-butyl-1-[(3′-((1-carboxy-1,1-dimethylmethyl)oxy)biphenyl-4-yl)methyl]-4-spirocyclopentyl-1H-imidazol-5(4H)-one], on hPPARγ (COS-7 cells transfected pGal4-hPPAR, 0.01 to 100 μM), the “activation of hPPARγ (luciferase activity)” value is given as “activate the two PPAR isoforms”. This molecule returned an EC50 at hPPARγ of 8 µM. In the assay with db/db mouse (10, 30 or 100 mpk), the glycemia result was “decreased significantly (and dose-dependently)”, the insulinemia result is listed as “decreased significantly (and dose-dependently)”, the “plasma free lipids level” value is “decreased significantly (and dose-dependently)” and the plasma triglycerides level result is on record as “decreased significantly (and dose-dependently)”. The “arterial pressure: antagonist effect on angiotensin II” value in assay [1] is “antagonist effect on angiotensin II in a significant and dose-dependent way”.
